This experiment deals with 3M, mammalian maquette MR reporter (de novo heme-binding maquette protein). To be noted: read-out: Kd (heme-binding affinity), current (preliminary) 3M before directed evolution.

1 molecule from US11814412B2, “Artificial proteins and compositions and methods thereof” (The Trustees of the University of Pennsylvania, priority 2015, dated 2023) can be followed below.

Molecules are shown by their SMILES.

On to `C=CC1=C(C)c2cc3[nH]c(cc4nc(cc5[nH]c(cc1n2)c(C)c5CCC(=O)O)C(CCC(=O)O)=C4C)c(C)c3C=C.[Fe]` [heme], for which the equilibrium dissociation constant (Kd) was approximately 1 µM.

Usually Kd stands for the equilibrium constant for the complex coming apart.
